Earlier results in US8889867B2, “Solid forms and process for preparing” (Corcept Therapeutics, Inc., priority 2009, dated 2014).

Legend:
[1] = system: patients with Cushing's syndrome
[2] = molecular target: glucocorticoid receptor (GR) (Homo sapiens, UniProt P04150); details: Bertagna (1984)
Chain of glucocorticoid receptor (GR) (P04150 whole entry): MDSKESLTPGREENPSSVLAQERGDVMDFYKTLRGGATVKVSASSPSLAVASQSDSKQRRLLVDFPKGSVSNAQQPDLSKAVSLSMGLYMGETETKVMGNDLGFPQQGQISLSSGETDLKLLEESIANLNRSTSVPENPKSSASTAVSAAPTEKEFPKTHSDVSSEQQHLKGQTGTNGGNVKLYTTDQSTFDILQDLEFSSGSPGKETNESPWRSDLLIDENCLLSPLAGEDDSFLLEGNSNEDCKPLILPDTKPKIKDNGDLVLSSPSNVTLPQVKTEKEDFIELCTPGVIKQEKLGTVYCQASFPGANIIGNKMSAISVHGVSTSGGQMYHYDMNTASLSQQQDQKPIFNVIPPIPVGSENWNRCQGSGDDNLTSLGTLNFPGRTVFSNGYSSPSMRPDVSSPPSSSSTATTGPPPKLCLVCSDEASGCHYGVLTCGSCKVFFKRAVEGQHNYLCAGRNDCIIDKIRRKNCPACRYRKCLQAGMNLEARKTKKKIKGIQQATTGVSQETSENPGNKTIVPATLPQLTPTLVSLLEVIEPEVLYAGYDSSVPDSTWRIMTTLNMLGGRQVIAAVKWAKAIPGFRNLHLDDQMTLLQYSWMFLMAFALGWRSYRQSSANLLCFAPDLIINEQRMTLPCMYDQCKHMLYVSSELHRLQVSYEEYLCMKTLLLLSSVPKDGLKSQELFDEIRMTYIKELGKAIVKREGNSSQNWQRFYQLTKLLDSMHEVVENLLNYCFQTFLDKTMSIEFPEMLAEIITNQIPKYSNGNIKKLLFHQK

CC#C[C@]1(O)CC[C@H]2[C@@H]3CCC4=CC(=O)CCC4=C3[C@@H](c3ccc(N(C)C)cc3)C[C@@]21C [mifepristone]
reversal of acute psychosis ([1]; 400 to 800 mg per day, severe Cushing Syndrome due to adrenal cancers and ectopic ACTH secretion from lung cancer, Van der Lely (1991, 1993)): useful in rapidly reversing acute psychosis
patients' conditions, including psychiatric status ([1]; Cushing's syndrome patients, Chrousos (1989), Sartor (1996)): improved the patients' conditions
anti-glucocorticoid effect in humans [2]: effective anti-glucocorticoid agent
